Source: PubChem BioAssay (NCI)
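Test compounds were applied to cells in 96-well plates for 48 hours at 5 doses. GI50 = concentration required for 50% inhibition of growth. TGI: concentration producing complete growth inhibition.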

Legend:
Test in all cases: growth of human tumour cells (NCI), 48 h
LOX IMVI melanoma = tested on: LOX IMVI melanoma
SR leukemia = tested on: SR leukemia
SNB-75 CNS = tested on: SNB-75 CNS
TK-10 renal = tested on: TK-10 renal
A498 renal = tested on: A498 renal
NCI-H522 lung = tested on: NCI-H522 lung
COLO 205 colon = tested on: COLO 205 colon
786-0 renal = tested on: 786-0 renal
RXF 393 renal = tested on: RXF 393 renal
OVCAR-5 ovarian = tested on: OVCAR-5 ovarian

Compound | GI50 (LOX IMVI melanoma) [µM] | TGI (LOX IMVI melanoma) [µM] | GI50 (SR leukemia) [µM] | TGI (SR leukemia) [µM] | GI50 (SNB-75 CNS) [µM] | TGI (SNB-75 CNS) [µM] | GI50 (TK-10 renal) [µM] | TGI (TK-10 renal) [µM] | GI50 (A498 renal) [µM] | TGI (A498 renal) [µM] | GI50 (NCI-H522 lung) [µM] | TGI (NCI-H522 lung) [µM] | GI50 (COLO 205 colon) [µM] | TGI (COLO 205 colon) [µM] | GI50 (786-0 renal) [µM] | TGI (786-0 renal) [µM] | GI50 (RXF 393 renal) [µM] | TGI (RXF 393 renal) [µM] | GI50 (OVCAR-5 ovarian) [µM] | TGI (OVCAR-5 ovarian) [µM]
CCC[CH2][Sn]1([CH2]CCC)[O]C(c2ccccn2)S(=O)(=O)[O]1 (centres undefined) | 1.64 | 3.07 | 2.45 | 6.62 | 2.53 | 7.26 | 2.54 | 5.84 | 18.1 | 32.1 | 1.18 | 2.47 | 2.1 | 4.54 | 2.12 | 4.11 | 2.36 | 3.95 | – | –
O=C1C(=O)c2cc([N+](=O)[O-])ccc2-c2ccccc21 | 1.22 | 2.48 | – | – | 1.47 | 2.8 | 1.77 | 3.19 | 12.5 | 25.1 | 1.28 | 2.68 | 1.94 | 3.49 | 1.97 | 3.39 | 1.96 | 3.43 | 1.82 | 3.36
CC1=CC(=O)C(C)(C2=NC(C)(C)CO2)c2ccccc21 (centres undefined) | – | – | – | > 100 | – | > 100 | – | > 100 | – | – | – | > 100 | – | > 100 | – | > 100 | – | > 100 | – | –
CCN1C(C)=NC2C(=O)c3ccccc3C(=O)C21 (centres undefined) | – | > 100 | – | > 100 | – | > 100 | – | > 100 | – | > 100 | – | – | – | > 100 | – | > 100 | – | > 100 | – | –
COc1ccc(C(=S)c2cc(OC)c(OC)c(OC)c2)cc1OC(=O)CCl | 0.0102 | > 100 | < 0.01 | > 100 | < 0.0114 | > 100 | 32.6 | > 100 | 0.179 | 2.5 | – | – | 1.3 | 17 | 0.183 | > 100 | 0.022 | > 77.3 | 3.32 | > 100
CC1(C)CC23C(=O)N(c4ccccc4)C(=Nc4ccccc4)NC2=CC(C#N)=C(C#N)C3O1 (centres undefined) | – | > 100 | – | – | – | > 100 | – | > 100 | – | > 100 | – | > 100 | – | > 100 | – | > 100 | – | > 100 | – | > 100
COc1cccc(/C=C(/C(=O)O)c2cc(OC)c(OC)c(OC)c2)c1 | – | > 100 | – | – | – | > 100 | – | > 100 | – | > 100 | – | > 100 | – | > 100 | – | > 100 | – | > 100 | – | –
CS(=O)(=O)c1ccc(N/N=C/c2c(-c3ccc(S(C)(=O)=O)cc3)[nH]c3ccc(F)cc23)cc1 | 1.24 | 3.64 | – | – | 1.52 | 40 | 2.95 | > 50 | 1.39 | 4.88 | 2.08 | > 50 | 2.86 | > 50 | 1.69 | > 50 | 0.904 | 1.94 | > 50 | > 50
